Assay results published in ChEMBL document CHEMBL3045776, “[1,2,4]Triazolo[4,3-a]quinoxaline: synthesis, antiviral, and antimicrobial activities” (Med Chem Res, 2012).
Converted amounts (≈) assume the structure as drawn.

Key:
[1] = Cytotoxicity against Chlorocebus aethiops (African green monkey) Vero cells; format: cell-based; settings: chlorocebus sabaeus, read-out: CD50 (the source's name)
Human alphaherpesvirus 1 [2] = experiment: Antiviral activity against Human herpesvirus 1 infected African green monkey Vero cells assessed as reduction of virus induced plaque formation at […] after 66 hr; format: functional; set-up: scale not given: the % may be the effect or the level left
Human alphaherpesvirus 1 [3] = experiment: Antiviral activity against Human herpesvirus 1 infected African green monkey Vero cells assessed as reduction of virus induced plaque formation after 66 hr; format: functional; settings: Human alphaherpesvirus 1, 66 h
Staphylococcus aureus [4] = experiment: Antibacterial activity against Staphylococcus aureus after 24 hr by agar dilution method; format: functional
Candida albicans [5] = experiment: Antifungal activity against Candida albicans at 500 ug/disk after 72 hr by disk diffusion method; format: functional; settings: read-out: IZ
Staphylococcus aureus [6] = experiment: Antibacterial activity against Staphylococcus aureus at 500 ug/disk after 24 hr by disk diffusion method; format: functional; settings: read-out: IZ
Escherichia coli [7] = experiment: Antibacterial activity against Escherichia coli at 500 ug/disk after 24 hr by disk diffusion method; format: functional; settings: read-out: IZ
Bacillus subtilis [8] = experiment: Antibacterial activity against Bacillus subtilis at 500 ug/disk after 24 hr by disk diffusion method; format: functional; settings: read-out: IZ
Escherichia coli [9] = experiment: Antibacterial activity against Escherichia coli after 24 hr by agar dilution method; format: functional
Candida albicans [10] = experiment: Antifungal activity against Candida albicans after 48 hr by agar dilution method; format: functional
Bacillus subtilis [11] = experiment: Antibacterial activity against Bacillus subtilis after 24 hr by agar dilution method; format: functional
Escherichia coli [12] = experiment: Antibacterial activity against Escherichia coli at 50 ug/ml after 24 hr by disk diffusion method; settings: read-out: IZ
Staphylococcus aureus [13] = experiment: Antibacterial activity against Staphylococcus aureus at 50 ug/ml after 24 hr by disk diffusion method; settings: read-out: IZ
Bacillus subtilis [14] = experiment: Antibacterial activity against Bacillus subtilis at 50 ug/ml after 24 hr by disk diffusion method; settings: read-out: IZ
Candida albicans [15] = experiment: Antifungal activity against Candida albicans at 1000 ug/ml after 72 hr by disk diffusion method; format: functional; settings: read-out: IZ

CC(=O)Nc1nnc2c(N3CCN(c4ccccc4C)CC3)nc3ccc(C)cc3n12 showed a CC50 [1] greater than 200 µg/mL.
Work on Cc1ccc2nc(N3CCN(c4ccccc4C)CC3)c3nnc(NC(=O)c4ccccc4)n3c2c1 yielded an Activity (Human alphaherpesvirus 1 [2]) of less than 25%, a CC50 [1] of 160 µg/mL (≈ 335 µM) and an MIC (Human alphaherpesvirus 1 [3]) of 80 µg/mL (≈ 168 µM).
Work on Cc1ccc2nc(N3CCCCC3)c3nnc(NC(=O)c4ccccc4)n3c2c1 yielded an MIC (Staphylococcus aureus [4]) of 84 µg/mL (≈ 217 µM), an Activity (Human alphaherpesvirus 1 [2]) of less than 25% and a CC50 [1] of 160 µg/mL (≈ 414 µM). For the same compound, the zone of inhibition at 500 µg/disc (Candida albicans [5]) was 10 mm, the zone of inhibition at 500 µg/disc (Staphylococcus aureus [6]) was 20 mm and the zone of inhibition at 500 µg/disc (Escherichia coli [7]) was 10 mm. It also gave an MIC (Human alphaherpesvirus 1 [3]) of 80 µg/mL (≈ 207 µM).
In the case of CC(=O)c1ccc(Nc2nc3ccc(C)cc3n3c(NC(=O)c4ccccc4)nnc23)cc1, the zone of inhibition at 500 µg/disc (Bacillus subtilis [8]) is reported as 10 mm, the MIC (Staphylococcus aureus [4]) is reported as 94 µg/mL (≈ 215 µM) and the MIC (Escherichia coli [9]) is reported as 67 µg/mL (≈ 154 µM). The zone of inhibition at 500 µg/disc (Staphylococcus aureus [6]) was 15 mm and the zone of inhibition at 500 µg/disc (Escherichia coli [7]) was 15 mm.
Cc1ccc2nc(Sc3nnc(-c4ccccc4O)o3)c3nnc(N)n3c2c1 gave an Activity (Human alphaherpesvirus 1 [2]) of less than 25%, a CC50 [1] of 160 µg/mL (≈ 409 µM) and an MIC (Human alphaherpesvirus 1 [3]) of 80 µg/mL (≈ 204 µM).
For Cc1ccc2nc(Sc3nnc(-c4cccnc4)o3)c3nnc(N)n3c2c1, the Activity (Human alphaherpesvirus 1 [2]) was less than 25%, the CC50 [1] was 160 µg/mL (≈ 425 µM) and the zone of inhibition at 500 µg/disc (Escherichia coli [7]) was 10 mm. The MIC (Human alphaherpesvirus 1 [3]) was 80 µg/mL (≈ 213 µM).
With Cc1ccc2nc(Sc3nnc(-c4cccs4)n3-c3ccccc3)c3nnc(N)n3c2c1 the zone of inhibition at 500 µg/disc (Bacillus subtilis [8]) was 15 mm, the MIC (Staphylococcus aureus [4]) was 124 µg/mL (≈ 272 µM) and the Activity (Human alphaherpesvirus 1 [2]) was less than 25%. For the same compound, the MIC (Candida albicans [10]) was 78 µg/mL (≈ 171 µM), the MIC (Escherichia coli [9]) was 98 µg/mL (≈ 215 µM) and the MIC (Bacillus subtilis [11]) was 91 µg/mL (≈ 199 µM). For the same compound, the CC50 [1] was 160 µg/mL (≈ 350 µM), the zone of inhibition at 500 µg/disc (Candida albicans [5]) was 20 mm and the zone of inhibition at 500 µg/disc (Staphylococcus aureus [6]) was 15 mm. It also gave a zone of inhibition at 500 µg/disc (Escherichia coli [7]) of 20 mm and an MIC (Human alphaherpesvirus 1 [3]) of 80 µg/mL (≈ 175 µM).
COc1ccc(/C=N/c2n[nH]c(Sc3nc4ccc(C)cc4n4c(N)nnc34)n2)cc1OC showed a zone of inhibition at 500 µg/disc (Bacillus subtilis [8]) of 10 mm, an MIC (Candida albicans [10]) of 112 µg/mL (≈ 243 µM) and an MIC (Escherichia coli [9]) of 102 µg/mL (≈ 221 µM). For the same compound, the zone of inhibition at 500 µg/disc (Candida albicans [5]) was 20 mm, the zone of inhibition at 500 µg/disc (Staphylococcus aureus [6]) was 10 mm and the zone of inhibition at 500 µg/disc (Escherichia coli [7]) was 15 mm.
In the case of CCNC(=S)Nc1nnc2c(Cl)nc3ccc(C)cc3n12, the zone of inhibition at 500 µg/disc (Bacillus subtilis [8]) is reported as 10 mm, the MIC (Staphylococcus aureus [4]) is reported as 115 µg/mL (≈ 358 µM) and the Activity (Human alphaherpesvirus 1 [2]) is reported as less than 25%. For the same compound, the MIC (Candida albicans [10]) was 89 µg/mL (≈ 277 µM), the MIC (Escherichia coli [9]) was 87 µg/mL (≈ 271 µM) and the CC50 [1] was 160 µg/mL (≈ 499 µM). It also gave a zone of inhibition at 500 µg/disc (Candida albicans [5]) of 20 mm, a zone of inhibition at 500 µg/disc (Staphylococcus aureus [6]) of 15 mm and a zone of inhibition at 500 µg/disc (Escherichia coli [7]) of 15 mm. For the same compound, the MIC (Human alphaherpesvirus 1 [3]) was 80 µg/mL (≈ 249 µM).
Compound Cc1ccc2nc(Cl)c3nnc(NC(=S)Nc4ccccc4)n3c2c1 has an Activity (Human alphaherpesvirus 1 [2]) of 25%, a CC50 [1] of 200 µg/mL (≈ 542 µM) and an MIC (Human alphaherpesvirus 1 [3]) of 20 µg/mL (≈ 54.2 µM).
Cc1ccc2nc(Cl)c3nnc(/N=C/c4ccc(O)cc4)n3c2c1 gave an Activity (Human alphaherpesvirus 1 [2]) of less than 25%, a CC50 [1] of 160 µg/mL (≈ 474 µM) and an MIC (Human alphaherpesvirus 1 [3]) of 80 µg/mL (≈ 237 µM).
Compound COc1ccc(/C=N/c2nnc3c(Cl)nc4ccc(C)cc4n23)cc1OC has an Activity (Human alphaherpesvirus 1 [2]) of less than 25%, a CC50 [1] of 160 µg/mL (≈ 419 µM) and an MIC (Human alphaherpesvirus 1 [3]) of 80 µg/mL (≈ 210 µM).
COC(=O)c1cc(=O)n2nc3c(Cl)nc4ccc(C)cc4n3c2n1 showed an Activity (Human alphaherpesvirus 1 [2]) of less than 25%, a CC50 [1] of 160 µg/mL (≈ 465 µM) and an MIC (Human alphaherpesvirus 1 [3]) of 80 µg/mL (≈ 233 µM).
CCOC(=O)c1cnc2n(nc3c(Cl)nc4ccc(C)cc4n32)c1=O gave a zone of inhibition at 500 µg/disc (Staphylococcus aureus [6]) of 10 mm.
In the case of Cc1ccc2nc(N3CCN(c4ccccc4C)CC3)c3nnc(N)n3c2c1, the zone of inhibition at 500 µg/disc (Bacillus subtilis [8]) is reported as 10 mm, the MIC (Escherichia coli [9]) is reported as 85 µg/mL (≈ 228 µM) and the zone of inhibition at 500 µg/disc (Candida albicans [5]) is reported as 10 mm. The zone of inhibition at 500 µg/disc (Escherichia coli [7]) was 10 mm.
For C[C@@]1(CO)[C@H](O)CC[C@@]2(C)[C@H]1CC[C@H]1C[C@@H]3C[C@@]12CC[C@]3(O)CO [APHIDICOLIN], the Activity (Human alphaherpesvirus 1 [2]) was 100%, the CC50 [1] was 20 µg/mL (≈ 59.1 µM) and the MIC (Human alphaherpesvirus 1 [3]) was 5 µg/mL (≈ 14.8 µM).
Compound O=C(O)c1cn(C2CC2)c2cc(N3CCNCC3)c(F)cc2c1=O [CIPROFLOXACIN] has an MIC (Staphylococcus aureus [4]) of 76 µg/mL (≈ 229 µM), a zone of inhibition at 50 µg/mL (Escherichia coli [12]) greater than 20 mm and a zone of inhibition at 50 µg/mL (Staphylococcus aureus [13]) greater than 20 mm. The zone of inhibition at 50 µg/mL (Bacillus subtilis [14]) was 15 mm, the MIC (Escherichia coli [9]) was 57 µg/mL (≈ 172 µM) and the MIC (Bacillus subtilis [11]) was 62 µg/mL (≈ 187 µM).
For Clc1ccccc1C(c1ccccc1)(c1ccccc1)n1ccnc1 [CLOTRIMAZOLE], the MIC (Candida albicans [10]) was 48 µg/mL (≈ 139 µM) and the zone of inhibition at 1000 µg/mL (Candida albicans [15]) was greater than 20 mm.
